Assay results reported in patent US8293764B2, “Compositions and methods for disruption of BRCA2-Rad51 interaction” (The Regents of the University of California, priority 2004, dated 2012).
Entries after “also recorded” stand apart in the source; their conditions may differ.

Legend:
Type in all cases: cell-based
[1] = tested on: IR-induced Rad51 foci in MCF-7 breast cancer cells; experiment: IR-induced Rad51 foci formation (immunostaining); details: MCF-7 cells
Description: These compounds were then tested for their effects on IR-induced Rad51 foci formation in MCF-7 breast cancer cells.
To test this possibility, the number of the MCF-7 cells that formed IR-induced Rad51 foci was measured after IBR2 treatment.
Immunostaining Rad51 and g-H2AX foci: MCF-7 cells were treated with 20 μM IBR2 for 7 or 19 hours and then g-irradiated at 20 Gy. Cells were incubated for an additional 5 hours with 20 μM IBR2, then fixed with 4% paraformaldehyde in PBS containing 0.5% Triton X-100. The fixed cells were incubated with a-Rad51 antibody (mAb 1F5) or a-g-H2AX antibody (Upstate). Rad51 and g-H2AX foci positive cells were subsequently counted as described (Chen et al., 1999).

[2] = tested on: breast cancer cell lines (MDA-MB-231, MCF-7, MDA-MB-468, SKBR3 and MDA-MB-435); experiment: Cell growth curves, trypan blue exclusion assay; details: 0, 5, 10, 20 μM; 1-5 days
Description: (§1) The inventors examined the effects of IBR2 on the growth and viability of a panel of breast cancer cell lines. Five exponentially growing breast cancer cell lines (MDA-MB-231, MCF-7, MDA-MB-468, SKBR3 and MDA-MB-435) were incubated with IBR2 at various concentrations (0, 5, 10 and 20 μM) for various periods of time (1, 2, 3, 4 and 5 days). The viable cell numbers were then counted by trypan blue exclusion assay. […] We also examined the effects of IBR2 on the growth and viability of cultured breast cancer cells (MDA-MB-468, MDA-MB-435, MCF-7, T47D) using the 3-(4,5-dimethylthiazol-2-yl)-2,5-diphenyltetrazolium bromide (MTT) assay.
(§2) Cell proliferation assay and clonogenic survival assays: To obtain cell growth curves, 1×10^4 cells were seeded in 12-well plate for 24 hours. Cells were then treated, in duplicate, with various concentrations of IBR2 in the presence of 0.4% DMSO. The viable cells were counted by trypan blue exclusion assay daily. MTT assay was performed as previously described (Alley et al., 1988).

[3] = tested on: breast cancer cells (MDA-MB-468, MDA-MB-435, MCF-7, T47D); experiment: MTT assay
Description: as §1, §2

Rad51 in MCF-7 cells = experiment: Rad51 stability assay with cyclohexamide; details: with cyclohexamide; control cells 5.5 hours
Description: To examine the impact of IBR2 on Rad51 protein expression, IBR2 treated MCF-7 cells was examined by straight western blot probed with a panel of antibodies against BRCA2, Rad51, Rad50, p84 and Rb. […] Consistent with our FACS analysis (FIG. 4A), the hypo-phosphorylated form of Rb, a marker for G1 phase, was the major form observed in the later time points, further confirming that IBR2 arrests cells at G1 phase (FIG. 4A). It has been reported that BRCA2 level is cell cycle dependent, which expresses low in G1 phase and peaks at G1/S boundary. Therefore the decreased level of BRCA2 in IBR2 treated cells may be due to G1 phase arrest. Different from BRCA2 protein, Rad51 protein is expressed constant throughout the cell cycle in MCF-7 cells (data not shown). Therefore, loss of Rad51 protein may be the direct effect of IBR2 treatment instead of the consequence of G1 arrest. […]
Western blot analysis: Cells were treated with […] or 50 μg/ml cycloheximide (CHX) or 1 μM MG132 and harvested at different time points for western blot analysis. […] The intensity of bands was quantified by densitometry using Labworks 4.5 software. The relative value of the band intensity was calculated with respect to that of untreated sample after normalization with the p84 signal.

[4] = tested on: MCF-7 breast cancer cells; experiment: Survival of cells under combination with chemotherapeutic agents or irradiation
Description: It is therefore likely that combination of IBR2 with other chemotherapeutic agents may have synergistic effects. To test this possibility, survival of MCF-7 breast cancer cells treated with 8 μM IBR2 plus different doses of VP-16, taxol, camptothecin, or gamma-irradiation was measured. […] Thus, it should be appreciated that a combination of IBR2 with other conventional therapeutic agents may have potential clinical applications in treating various cancers.
To perform clonogenic survival assay, 1.5×10^3 MCF-7 cells were seeded in 10-cm dishes for 24 hours. Cells were then treated, in triplicate, with 5 μM IBR2 for 12 hours and then g-irradiated. Cells were continuously exposed to 5 μM IBR2 and re-fed every 4 days with fresh medium and IBR2. After 14-16 days, cells were fixed and stained with 2% methylene blue. Colonies consisting of more than 50 cells were counted.

Compound: O=S(=O)(Cc1ccccc1)N1C=Cc2ccccc2C1c1c[nH]c2ccccc12 (centres unmarked) [IBR2, 2-(benzylsulfonyl)-1-(1H-indol-3-yl)-1,2-dihydroisoquinoline]
- IR-induced Rad51 foci formation [1]: dramatically reduced Rad51 foci formation; also recorded: significantly reduced IR-induced Rad51 foci formation
- growth of breast cancer cell lines (viable cell numbers) [2]: retarded growth of breast tumor cells in culture; also recorded: significantly inhibited the growth
- IC50 [3]: ~10 µM
- half-life of Rad51 (Rad51 in MCF-7 cells): 1.5 h
- synergy with VP-16 on cell survival ([4]; 8 μM IBR2 plus different doses of VP-16): Significant synergistic effects
- synergy with camptothecin on cell survival ([4]; 8 μM IBR2 plus different doses of camptothecin): Significant synergistic effects
- synergy with gamma-irradiation on clonogenic survival ([4]; 8 μM IBR2 plus different doses of gamma-irradiation): Significant synergistic effects
- synergy with taxol on cell survival ([4]; 8 μM IBR2 plus different doses of taxol): Significant synergistic effects
